Assays:
hIL-6 mRNA = test: Quantification of hIL-6 mRNA in LPS-stimulated U937 macrophages (real-time PCR); assay type: cell-based, human; set-up: key: Active: an active compound is one that causes a ≧20% inhibition in IL-6 mRNA at a concentration less than or equal to 10 μM; details: U937 cells differentiated with PMA, 1 h pretreatment, LPS 1 μg/mL, 3 h; IL-6 mRNA normalised to hCyclophilin; compound ≤10 μM
Protocol: In this example, hIL-6 mRNA in tissue culture cells was quantitated to measure the transcriptional inhibition of hIL-6 when treated with a compound of the invention.
A human leukemic monocytic lymphoma cell line (U937) was plated (3.2×10^5 cells per well) in a 96-well plate in 100 μL RPMI 1640+10% FBS, and differentiated into macrophages with PMA (60 ng/mL) for 3 days prior to the addition of the compound of interest. The cells were pretreated for 1 h with the test compound in DMSO prior to stimulation with lipopolysaccharide from Escherichia coli at 1 μg/mL. The cells were incubated for 3 h before harvest. At the time of harvest, cells were rinsed in 200 μL PBS. Cell lysis solution (70 μL) was added the cells for 10 min, and mRNA was then prepared using the “mRNA Catcher PLUS plate” (Invitrogen), according to the protocol supplied.
(§1) The eluted mRNA isolated was then used in a one-step quantitative real-time PCR reaction, using components of the UltraSense kit together with Applied Biosystems primer-probe mixes. 10 μL of template was amplified with 1.75 μL of IL-6 primer-probe, and 1 μL of hCyclophilin primer probe, and the reaction was carried out in multiplex. Real-time PCR data was analyzed, normalizing the Ct values for hIL-6 to hCyclophilin, prior to determining the fold induction of each unknown sample, relative to the control.

hVCAM-1 mRNA = test: Quantification of hVCAM-1 mRNA in TNF-α-stimulated HUV-EC-C cells (real-time PCR); assay type: cell-based, human; set-up: key: Active: an active compound is one that causes a ≧20% inhibition in VCAM-1 mRNA at a concentration less than or equal to 10 μM; details: 1 h pretreatment, TNF-α 10 ng/mL, 24 h, VCAM-1 mRNA normalised to hCyclophilin, compound ≤10 μM
Protocol: In this example, hVCAM-1 mRNA in tissue culture cells was quantitated to measure the transcriptional inhibition of hVCAM when treated with a compound of the invention.
A human umbilical vein endothelial cell line (HUV-EC-C) was plated in a 96-well plate (5.0×10^3 cells/well) in 100 μL EGM complete media and incubated for 24 h prior to the addition of the compound of interest. The cells were pretreated for 1 h with the test compound in DMSO prior to stimulation with tumor necrosis factor-α (10 ng/mL). The cells were incubated for an additional 24 h before harvest. At time of harvest, the cells were rinsed in 200 μL PBS, and cell lysis solution (70 μL) was then added the cells for 10 min. mRNA was then prepared using the “mRNA Catcher PLUS plate” (Invitrogen), according to the protocol supplied.
as §1, with “mRNA” for “mRNA isolated”, “hVCAM-1” for “IL-6”, “hVCAM-1” for “hIL-6”

Structure (SMILES)	Inhibition of IL-6 expression (hIL-6 mRNA)	Inhibition of VCAM-1 expression (hVCAM-1 mRNA)
COc1cc(OC)c2c(=O)[nH]c(-c3cc(C)c(OCCNCC(F)(F)F)c(C)c3)nc2c1 [Example 40, 2-{3,5-dimethyl-4-[2-(2,2,2-trifluoro-ethylamino)-ethoxy]-phenyl}-5,7-dimethoxy-3H-quinazolin-4-one]	Active	Active
CNCCOc1c(C)cc(-c2nc3cc(OC)cc(OC)c3c(=O)[nH]2)cc1C [Example 42, 2-(3,5-dimethyl-4-(2-(methylamino)ethoxy)phenyl)-5,7-dimethoxyquinazolin-4(3H)-one]	Active	Active
COc1cc(OC)c2c(=O)[nH]c(-c3cc(C)c(OCCNC(C)C)c(C)c3)nc2c1 [Example 44, 2-(4-(2-(isopropylamino)ethoxy)-3,5-dimethylphenyl)-5,7-dimethoxyquinazolin-4(3H)-one]	Active	Active
COc1cc(OC)c2c(=O)[nH]c(-c3cc(C)c(OCCN(C)C(C)=O)c(C)c3)nc2c1 [Example 47, N-(2-(4-(5,7-dimethoxy-4-oxo-3,4-dihydroquinazolin-2-yl)-2,6-dimethylphenoxy)ethyl)-N-methylacetamide]	Active	Active
COc1cc(OC)c2c(=O)[nH]c(-c3cc(C)c(OCCNC#N)c(C)c3)nc2c1 [Example 51, N-(2-(4-(5,7-dimethoxy-4-oxo-3,4-dihydroquinazolin-2-yl)-2,6-dimethylphenoxy)ethyl)cyanamide]	Active	Active
COc1cc(OC)c2c(=O)[nH]c(-c3ccc4cc(CCO)[nH]c4c3)nc2c1 [Example 58, 2-[2-(2-hydroxyethyl)-1H-indol-6-yl]-5,7-dimethoxy-3H-quinazolin-4-one]	Active	Active
